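Results reflect a 48-hour exposure of cells in 96-well plates to compound at five concentrations. Abbreviation: GI50, concentration required for 50% inhibition of growth. Definition used: TGI = concentration required for complete inhibition of growth.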
Legend:
Experiment in all cases: NCI anticancer screen, dose series, 48 h
A498 renal = system: A498 renal
A549 NSCLC = system: A549 NSCLC
ACHN renal = system: ACHN renal
BT-549 breast = system: BT-549 breast
CAKI-1 renal = system: CAKI-1 renal
CCRF-CEM leukemia = system: CCRF-CEM leukemia
DU-145 prostate = system: DU-145 prostate
EKVX NSCLC = system: EKVX NSCLC
HCC-2998 colon = system: HCC-2998 colon
HCT-116 colon = system: HCT-116 colon
HCT-15 colon = system: HCT-15 colon
HL-60(TB) leukemia = system: HL-60(TB) leukemia
HOP-62 NSCLC = system: HOP-62 NSCLC
HOP-92 NSCLC = system: HOP-92 NSCLC
IGROV1 ovarian = system: IGROV1 ovarian
K-562 leukemia = system: K-562 leukemia
KM12 colon = system: KM12 colon
LOX IMVI melanoma = system: LOX IMVI melanoma
M14 melanoma = system: M14 melanoma
MALME-3M melanoma = system: MALME-3M melanoma
MCF7 breast = system: MCF7 breast
MDA-MB-435 = system: MDA-MB-435
MOLT-4 leukemia = system: MOLT-4 leukemia
NCI-H23 lung = system: NCI-H23 lung
NCI-H460 lung = system: NCI-H460 lung
NCI-H522 lung = system: NCI-H522 lung
OVCAR-3 ovarian = system: OVCAR-3 ovarian
OVCAR-4 ovarian = system: OVCAR-4 ovarian
OVCAR-5 ovarian = system: OVCAR-5 ovarian
OVCAR-8 ovarian = system: OVCAR-8 ovarian
PC-3 prostate = system: PC-3 prostate
SF-295 CNS = system: SF-295 CNS
SF-539 CNS = system: SF-539 CNS
SK-MEL-2 melanoma = system: SK-MEL-2 melanoma
SK-MEL-28 melanoma = system: SK-MEL-28 melanoma
SK-MEL-5 melanoma = system: SK-MEL-5 melanoma
SK-OV-3 ovarian = system: SK-OV-3 ovarian
SN12C renal = system: SN12C renal
SNB-19 CNS = system: SNB-19 CNS
SNB-75 CNS = system: SNB-75 CNS
SW-620 colon = system: SW-620 colon
TK-10 renal = system: TK-10 renal
U251 CNS = system: U251 CNS
UACC-257 melanoma = system: UACC-257 melanoma
UACC-62 melanoma = system: UACC-62 melanoma
UO-31 renal = system: UO-31 renal

`Cc1ccc(C2CC(c3cccc(Nc4ccncc4)c3)=NN2c2cc(Cl)cc(Cl)c2)cc1` (configuration not stated) was tested, and the GI50 (A498 renal) was 1210 nM, the TGI (A498 renal) was 2470 nM and the GI50 (A549 NSCLC) was 1780 nM. The TGI (A549 NSCLC) was 3600 nM, the GI50 (ACHN renal) was 1650 nM and the TGI (ACHN renal) was 3000 nM. For the same molecule, the GI50 (BT-549 breast) was 1740 nM, the TGI (BT-549 breast) was 3380 nM and the GI50 (CAKI-1 renal) was 1540 nM. The TGI (CAKI-1 renal) was 3030 nM, the GI50 (CCRF-CEM leukemia) was 3470 nM and the TGI (CCRF-CEM leukemia) was > 100000 nM. It also gave a GI50 (DU-145 prostate) of 1900 nM, a TGI (DU-145 prostate) of 3520 nM and a GI50 (EKVX NSCLC) of 1550 nM. The TGI (EKVX NSCLC) was 2940 nM, the GI50 (HCC-2998 colon) was 1520 nM and the TGI (HCC-2998 colon) was 2850 nM. For the same molecule, the GI50 (HCT-116 colon) was 1850 nM, the TGI (HCT-116 colon) was 3850 nM and the GI50 (HCT-15 colon) was 1670 nM. It also gave a TGI (HCT-15 colon) of 3100 nM, a GI50 (HL-60(TB) leukemia) of 1830 nM and a TGI (HL-60(TB) leukemia) of 4110 nM. It also gave a GI50 (HOP-62 NSCLC) of 1910 nM, a TGI (HOP-62 NSCLC) of 4530 nM and a GI50 (HOP-92 NSCLC) of 1370 nM. It also gave a TGI (HOP-92 NSCLC) of 2780 nM, a GI50 (IGROV1 ovarian) of 1690 nM and a TGI (IGROV1 ovarian) of 3230 nM. It also gave a GI50 (K-562 leukemia) of 1850 nM, a TGI (K-562 leukemia) of 4580 nM and a GI50 (KM12 colon) of 1650 nM. It also gave a TGI (KM12 colon) of 3040 nM, a GI50 (LOX IMVI melanoma) of 1550 nM and a TGI (LOX IMVI melanoma) of 2890 nM. It also gave a GI50 (M14 melanoma) of 1930 nM, a TGI (M14 melanoma) of 3990 nM and a GI50 (MALME-3M melanoma) of 1670 nM. It also gave a TGI (MALME-3M melanoma) of 3250 nM, a GI50 (MCF7 breast) of 1890 nM and a TGI (MCF7 breast) of 4100 nM. It also gave a GI50 (MDA-MB-435) of 1660 nM, a TGI (MDA-MB-435) of 3110 nM and a GI50 (MOLT-4 leukemia) of 1940 nM. It also gave a TGI (MOLT-4 leukemia) of 4440 nM, a GI50 (NCI-H23 lung) of 1760 nM and a TGI (NCI-H23 lung) of 3350 nM. For the same molecule, the GI50 (NCI-H460 lung) was 1830 nM, the TGI (NCI-H460 lung) was 3550 nM and the GI50 (NCI-H522 lung) was 1730 nM. For the same molecule, the TGI (NCI-H522 lung) was 3580 nM, the GI50 (OVCAR-3 ovarian) was 1720 nM and the TGI (OVCAR-3 ovarian) was 3230 nM. For the same molecule, the GI50 (OVCAR-4 ovarian) was 1580 nM, the TGI (OVCAR-4 ovarian) was 3100 nM and the GI50 (OVCAR-5 ovarian) was 1650 nM. For the same molecule, the TGI (OVCAR-5 ovarian) was 3060 nM, the GI50 (OVCAR-8 ovarian) was 2210 nM and the TGI (OVCAR-8 ovarian) was 5240 nM. The GI50 (PC-3 prostate) was 1580 nM, the TGI (PC-3 prostate) was 3200 nM and the GI50 (SF-295 CNS) was 1720 nM. It also gave a TGI (SF-295 CNS) of 3100 nM, a GI50 (SF-539 CNS) of 1650 nM and a TGI (SF-539 CNS) of 3050 nM. The GI50 (SK-MEL-2 melanoma) was 2000 nM, the TGI (SK-MEL-2 melanoma) was 3990 nM and the GI50 (SK-MEL-28 melanoma) was 1770 nM. The TGI (SK-MEL-28 melanoma) was 3300 nM, the GI50 (SK-MEL-5 melanoma) was 1760 nM and the TGI (SK-MEL-5 melanoma) was 3170 nM. The GI50 (SK-OV-3 ovarian) was 1680 nM, the TGI (SK-OV-3 ovarian) was 3380 nM and the GI50 (SN12C renal) was 1710 nM. The TGI (SN12C renal) was 3240 nM, the GI50 (SNB-19 CNS) was 1720 nM and the TGI (SNB-19 CNS) was 3450 nM. The GI50 (SNB-75 CNS) was 1230 nM, the TGI (SNB-75 CNS) was 2620 nM and the GI50 (SW-620 colon) was 1690 nM. The TGI (SW-620 colon) was 3260 nM, the GI50 (TK-10 renal) was 1640 nM and the TGI (TK-10 renal) was 3070 nM. For the same molecule, the GI50 (U251 CNS) was 1860 nM, the TGI (U251 CNS) was 3880 nM and the GI50 (UACC-257 melanoma) was 1880 nM. It also gave a TGI (UACC-257 melanoma) of 3830 nM, a GI50 (UACC-62 melanoma) of 1770 nM and a TGI (UACC-62 melanoma) of 3250 nM. For the same molecule, the GI50 (UO-31 renal) was 1310 nM and the TGI (UO-31 renal) was 2590 nM.
